Reference: patent publication US5401761A, “Thiazolidinedione hypoglycemic agents” (Pfizer, Inc., priority 1993, dated 1995)

Tested on: OB/OB MOUSE
Experiment: Hypoglycemic activity in the ob/ob mouse
Type: in vivo, mouse (C57 BL/6J-ob/ob)
Settings: for ED50 (Present Invention, X = H): concentration required to give hypoglycemic activity equivalent to 50% of the positive control / ED50 (EP 299620A, X = OH): concentration required to give hypoglycemic activity equivalent to 50% of the positive control: ob/ob mouse, dosed daily for five days, positive control ciglitazone 50 mg/kg, 7200 min
From the text: The present compounds of the formula (I) are readily adapted to clinical use as hypoglycemic or hypocholesterolemic agents. The activity required for the former clinical use is defined by the test for hypoglycemic effect in ob/ob mice by the following procedure:
Five to eight week old C57 BL/6J-ob/ob mice (obtained from Jackson Laboratory, Bar Harbor, Me.) were housed five per cage under standard animal care practices. After a one week acclimation period, the animals were weighed and 25 microliters of blood was collected via an ocular bleed prior to any treatment. The blood sample was immediately diluted 1:5 with saline containing 2.5 mg/ml sodium fluoride and 2% sodium heparin, and held on ice for metabolite analysis. […] Bull., vol. […] All drugs were administered in a vehicle consisting of 0.25% w/v methyl cellulose. On day 5, the animals were weighed again and bled (via the ocular route) for blood metabolite levels. The freshly collected samples were centrifuged for two minutes at […] at room temperature. The supernatant was analyzed for glucose, for example, by the ABA 200 Bichromatic Analyzer™*, using the A-gent™^1 glucose UV reagent system*^2 (hexokinase method) using 20, 60 and 100 mg/dl standards. Plasma glucose was then calculated by the equation,
Test compounds are reported in terms of % glucose normalization. For example, a glucose level which is the same as the positive control is reported as 100%.

| SMILES | ED50 (Present Invention, X = H): concentration required to give hypoglycemic activity equivalent to 50% of the positive control | ED50 (EP 299620A, X = OH): concentration required to give hypoglycemic activity equivalent to 50% of the positive control | also measured |
| --- | --- | --- | --- |
| Cc1oc(C2CCCCC2)nc1Cc1cc2cc(CC3SC(=O)NC3=O)ccc2o1 (stereo not drawn) [cyclohexyl, X = H, 5-[(2-(2-cyclohexyl-5-methyl-4-oxazolyl)methyl)-5-benzofuranylmethyl]-2,4-thiazolidinedione] | 0.05 mg/kg |  |  |
| Cc1oc(-c2cccc(F)c2)nc1Cc1cc2cc(CC3SC(=O)NC3=O)ccc2o1 (stereo not drawn) [m-fluorophenyl, X = H, 5-[(2-(2-(3-fluorophenyl)-5-methyl-4-oxazolyl)methyl)-5-benzofuranylmethyl]-2,4-thiazolidinedione] | 0.05 mg/kg |  |  |
| Cc1oc(-c2cccc(F)c2)nc1C(O)c1cc2cc(CC3SC(=O)NC3=O)ccc2o1 (stereo not drawn) [m-fluorophenyl, X = OH, reference compound] |  | 0.50 mg/kg |  |
| Cc1cccc(-c2nc(Cc3cc4cc(CC5SC(=O)NC5=O)ccc4o3)c(C)o2)c1 (stereo not drawn) [m-methylphenyl, X = H, 5-[(2-(5-methyl-2-(3-methylphenyl)-4-oxazolyl)-methyl)-5-benzofuranylmethyl]2,4-thiazolidinedione] | < 0.005 mg/kg |  |  |
| Cc1cccc(-c2nc(C(O)c3cc4cc(CC5SC(=O)NC5=O)ccc4o3)c(C)o2)c1 (stereo not drawn) [m-methylphenyl, X = OH, reference compound] |  | 0.05 to 0.1 mg/kg |  |
| Cc1oc(-c2ccccc2F)nc1Cc1cc2cc(CC3SC(=O)NC3=O)ccc2o1 (stereo not drawn) [o-fluorophenyl, X = H, 5-[(2-(2-(2-fluorophenyl)-5-methyl-4-oxazolyl)methyl)-5-benzofuranylmethyl]-2,4-thiazolidinedione] | 0.01 mg/kg |  |  |
| Cc1oc(-c2ccccc2F)nc1C(O)c1cc2cc(CC3SC(=O)NC3=O)ccc2o1 (stereo not drawn) [o-fluorophenyl, X = OH, reference compound] |  | 0.50 mg/kg |  |
| Cc1ccccc1-c1nc(Cc2cc3cc(CC4SC(=O)NC4=O)ccc3o2)c(C)o1 (stereo not drawn) [o-methylphenyl, X = H] | 0.05 mg/kg |  |  |
| Cc1ccccc1-c1nc(C(O)c2cc3cc(CC4SC(=O)NC4=O)ccc3o2)c(C)o1 (stereo not drawn) [o-methylphenyl, X = OH, reference compound] |  | > 1 mg/kg |  |
| Cc1oc(-c2ccc(Cl)cc2)nc1Cc1cc2cc(CC3SC(=O)NC3=O)ccc2o1 (stereo not drawn) [p-chlorophenyl, X = H, 5-[(2-(2-(4-chlorophenyl)-5-methyl-4-oxazolyl)methyl)-5-benzofuranylmethyl]-2,4thiazolidinedione] | 0.05 mg/kg |  |  |
| Cc1ccc(-c2nc(Cc3cc4cc(CC5SC(=O)NC5=O)ccc4o3)c(C)o2)cc1 (stereo not drawn) [p-methylphenyl, X = H, 5-[(2-(5-methyl-2-(4-methylphenyl)-4-oxazolyl)-methyl)-5-benzofuranylmethyl]-2,4-thiazolidinedione] | 0.05 mg/kg |  |  |
| Cc1oc(-c2ccccc2)nc1Cc1cc2cc(CC3SC(=O)NC3=O)ccc2o1 (stereo not drawn) [phenyl, X = H, 5-[(2-(5-Methyl-2-phenyl-4-oxazolyl)methyl)-5-benzofuranylmethyl]-2,4-thiazolidinedione] | 0.01 mg/kg |  |  |
| Cc1oc(-c2ccccc2)nc1C(O)c1cc2cc(CC3SC(=O)NC3=O)ccc2o1 (stereo not drawn) [phenyl, X = OH, 5-[(2-(5-Methyl-2-phenyl-4-oxazolyl)hydroxymethyl)-5-benzofuranylmethyl]-2,4-thiazolidinedione, reference compound] |  | 0.25 mg/kg |  |
| CC1(COc2ccc(CC3SC(=O)NC3=O)cc2)CCCCC1 (stereo not drawn) [positive control, ciglitazone, reference compound] |  |  | glucose level of positive control animals (positive control (50 mg/kg) of ciglitazone, daily for five days, vehicle e.g. 250 mg/dl): ~130 mg/dL |
| Cc1oc(C(C)(C)C)nc1Cc1cc2cc(CC3SC(=O)NC3=O)ccc2o1 (stereo not drawn) [tert-butyl, X = H, 5-[(2-(5-methyl-2-(1,1-dimethylethyl)-4-oxazolyl)-methyl)-5-benzofuranylmethyl]-2,4-thiazolidinedione] | 0.10 mg/kg |  |  |
